Molecules are shown by their SMILES. Like-named read-outs stand apart in the source and are kept apart here.

This note sets out measurements from patent publication US10034861B2 (priority 2016, dated 2018).

Assay type in all cases: biochemical
Holding throughout (conditions): 15 nM tritium labelled cAMP, 1 hr at room temperature, SPA beads

The target in one assay is PDE1B (Homo sapiens (Human), UniProt Q01064). Kind of assay: PDE1 inhibition assay (PDE1B). The source says: (§1) Table 1 lists the IC50 value for inhibition of PDE1 by the compounds of the invention. […] PDE1 assays are described in the Experimental Section.
PDE1B, sequence (Q01064 whole entry): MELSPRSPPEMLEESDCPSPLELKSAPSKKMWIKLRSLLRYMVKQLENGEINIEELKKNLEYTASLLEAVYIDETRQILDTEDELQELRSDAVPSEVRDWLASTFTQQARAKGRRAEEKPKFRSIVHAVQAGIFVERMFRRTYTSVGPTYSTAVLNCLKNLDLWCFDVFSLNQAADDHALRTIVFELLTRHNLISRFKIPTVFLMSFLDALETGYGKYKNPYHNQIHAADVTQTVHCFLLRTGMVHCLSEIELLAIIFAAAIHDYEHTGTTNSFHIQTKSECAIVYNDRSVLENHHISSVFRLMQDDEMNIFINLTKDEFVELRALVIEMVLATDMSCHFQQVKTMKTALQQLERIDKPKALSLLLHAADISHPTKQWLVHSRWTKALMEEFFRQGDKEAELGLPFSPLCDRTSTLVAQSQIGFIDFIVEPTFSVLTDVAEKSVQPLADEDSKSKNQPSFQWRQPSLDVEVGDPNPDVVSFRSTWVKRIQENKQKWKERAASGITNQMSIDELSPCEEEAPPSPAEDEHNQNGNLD
Another assay deals with PDE1C (Homo sapiens (Human), UniProt Q14123). The assay can be described thus: biochemical.
PDE1C, sequence (Q14123 whole entry): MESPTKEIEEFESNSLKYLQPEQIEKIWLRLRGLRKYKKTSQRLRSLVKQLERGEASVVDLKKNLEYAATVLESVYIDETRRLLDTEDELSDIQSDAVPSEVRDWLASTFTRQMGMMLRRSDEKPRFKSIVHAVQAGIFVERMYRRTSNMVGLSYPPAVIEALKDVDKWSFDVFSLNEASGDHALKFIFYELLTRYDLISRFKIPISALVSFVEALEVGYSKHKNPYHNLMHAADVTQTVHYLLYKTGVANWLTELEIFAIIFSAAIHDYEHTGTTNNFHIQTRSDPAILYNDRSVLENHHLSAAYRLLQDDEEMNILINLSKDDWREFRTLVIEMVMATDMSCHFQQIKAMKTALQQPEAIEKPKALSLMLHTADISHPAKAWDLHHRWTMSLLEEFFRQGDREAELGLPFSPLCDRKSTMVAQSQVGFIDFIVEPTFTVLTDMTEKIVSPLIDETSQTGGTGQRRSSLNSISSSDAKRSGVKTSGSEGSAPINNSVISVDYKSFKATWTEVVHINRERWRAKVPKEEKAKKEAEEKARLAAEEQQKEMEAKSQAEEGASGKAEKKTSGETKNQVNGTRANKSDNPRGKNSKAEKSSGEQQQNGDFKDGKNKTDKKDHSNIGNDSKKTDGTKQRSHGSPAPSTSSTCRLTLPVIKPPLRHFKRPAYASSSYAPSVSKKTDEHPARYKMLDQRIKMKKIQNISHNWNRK
Excerpt: as §1

The target of the next assay is PDE1A (Homo sapiens (Human), UniProt P54750). Kind of assay: biochemical.
PDE1A, sequence (P54750 whole entry): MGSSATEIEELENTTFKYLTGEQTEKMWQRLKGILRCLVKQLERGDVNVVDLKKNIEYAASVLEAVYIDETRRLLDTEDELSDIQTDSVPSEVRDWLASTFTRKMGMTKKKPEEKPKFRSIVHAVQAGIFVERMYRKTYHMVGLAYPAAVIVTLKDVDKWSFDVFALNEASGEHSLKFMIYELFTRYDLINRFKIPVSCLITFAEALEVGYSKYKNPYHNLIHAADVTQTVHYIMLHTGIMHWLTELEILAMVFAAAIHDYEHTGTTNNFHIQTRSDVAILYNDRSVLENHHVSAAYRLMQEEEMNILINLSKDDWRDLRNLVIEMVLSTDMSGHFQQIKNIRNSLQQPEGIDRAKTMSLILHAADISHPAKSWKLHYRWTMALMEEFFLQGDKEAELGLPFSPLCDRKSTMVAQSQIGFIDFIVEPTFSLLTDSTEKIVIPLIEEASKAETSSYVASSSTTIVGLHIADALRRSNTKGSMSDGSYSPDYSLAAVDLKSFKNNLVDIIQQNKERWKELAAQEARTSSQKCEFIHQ
Excerpt: as §1

For the molecule `COc1ncccc1CNc1cc(-c2cccnc2C(F)(F)F)nc2c(C)nn(C(C)C)c12` [Example 183, 1-isopropyl-N-((2-methoxypyridin-3-yl)methyl)-3-methyl-5-(2-(trifluoromethyl)pyridin-3-yl)-1H-pyrazolo[4,3-b]pyridin-7-amine], the half-maximal inhibitory concentration (IC50) (in general, the point on the concentration scale where inhibition reaches its midpoint) worked out at 38 nM on PDE1B (read-out: PDE1B, IC50); 350 nM at PDE1C; 290 nM against PDE1A.

On to `CCOc1ncccc1-c1cc(NCc2cnn(C)c2)c2c(n1)c(C)nn2C1CC1` [Example 12, 1-cyclopropyl-5-(2-ethoxy-3-pyridyl)-3-methyl-N-[(1-methylpyrazol-4-yl)methyl]pyrazolo[4,3-b]pyridin-7-amine], for which the IC50 at PDE1B (read-out: PDE1B, IC50) was determined as 60 nM; on PDE1C it was 690 nM; at PDE1A, 200 nM.

`CCOc1ncccc1-c1cc(NCc2cc(C)on2)c2c(n1)c(C)nn2C(C)C` [Example 3, 5-(2-ethoxy-3-pyridyl)-1-isopropyl-3-methyl-N-[(5-methylisoxazol-3-yl)methyl]pyrazolo[4,3-b]pyridin-7-amine]: the IC50 on PDE1B (read-out: PDE1B, IC50) was found to be 0.11 nM; on PDE1C, 3 nM; on PDE1A it was 0.8 nM.

Consider `CCCOc1ncccc1-c1cc(NCc2ncn(C)n2)c2c(n1)c(C)nn2C(C)CC` (single isomer, unassigned) [Example 134, 3-methyl-1-[1-methylpropyl]-N-[(1-methyl-1,2,4-triazol-3-yl)methyl]-5-(2-propoxy-3-pyridyl)pyrazolo[4,3-b]pyridin-7-amine], for which the IC50 against PDE1B (PDE1B, IC50 (nM)) was determined as 0.12 nM; against PDE1C, 1.5 nM; against PDE1A, 0.96 nM.

In the case of `COc1ncccc1CNc1cc(-c2cccnc2OC(F)F)nc2c(C)nn(C(C)C)c12` [Example 188, 5-[2-(difluoromethoxy)-3-pyridyl]-1-isopropyl-N-[(2-methoxy-3-pyridyl)methyl]-3-methyl-pyrazolo[4,3-b]pyridin-7-amine], the IC50 was found to be 7.8 nM at PDE1B (read-out: PDE1B, IC50); 60 nM on PDE1C; 61 nM against PDE1A.

For `Cc1nn(C(C)C)c2c(NCc3cnn(C)c3)cc(-c3nncn3C)nc12` [Example 203, 1-isopropyl-3-methyl-N-[(1-methylpyrazol-4-yl)methyl]-5-(4-methyl-1,2,4-triazol-3-yl)pyrazolo[4,3-b]pyridin-7-amine], the IC50 was determined as 180 nM on PDE1B (read-out: PDE1B, IC50); 420 nM at PDE1C; 410 nM on PDE1A.

Take `CCCOc1ncccc1-c1cc(NCc2cnn(C)c2)c2c(n1)c(C)nn2C(C)C` [Example 94, 1-isopropyl-3-methyl-N-[(1-methylpyrazol-4-yl)methyl]-5-(2-propoxy-3-pyridyl)pyrazolo[4,3-b]pyridin-7-amine]: the IC50 at PDE1B (read-out: PDE1B, IC50) stood at 0.065 nM; at PDE1C it was 4.9 nM; at PDE1A, 1.4 nM.

For the molecule `CCCOc1ncccc1-c1cc(NCc2cc[nH]n2)c2c(n1)c(C)nn2C(C)C` [Example 143, 1-isopropyl-3-methyl-5-(2-propoxy-3-pyridyl)-N-(1H-pyrazol-3-ylmethyl)pyrazolo[4,3-b]pyridin-7-amine], the IC50 at PDE1B (read-out: PDE1B, IC50) amounted to 0.26 nM; on PDE1C it was 9.2 nM; against PDE1A, 3.8 nM.

With `Cc1nn(C(C)C)c2c(NCc3cnn(C)c3)cc(N3C(=O)OCC3C)nc12` (stereo not drawn) [Example 155, 3-[1-isopropyl-3-methyl-7-[(1-methylpyrazol-4-yl)methylamino]pyrazolo[4,3-b]pyridin-5-yl]-4-methyl-oxazolidin-2-one], the IC50 was 4.9 nM on PDE1B (read-out: PDE1B, IC50); 3.9 nM against PDE1C; 8.2 nM against PDE1A.

Take `Cc1nn(C(C)C)c2c(NCc3cnn(C)c3)cc(-c3cccnc3OC(C)C)nc12` [Example 97, 5-(2-isopropoxy-3-pyridyl)-1-isopropyl-3-methyl-N-[(1-methylpyrazol-4-yl)methyl]pyrazolo[4,3-b]pyridin-7-amine]: the IC50 on PDE1B (read-out: PDE1B, IC50) was 0.6 nM; against PDE1C, 9.1 nM; on PDE1A it was 1.4 nM.

In the case of `CCOc1ncccc1-c1cc(CCc2ncn(C)n2)c2c(n1)c(C)nn2C(C)C` [Example 160, 5-(2-ethoxy-3-pyridyl)-1-isopropyl-3-methyl-7-[2-(1-methyl-1,2,4-triazol-3-yl)ethyl]pyrazolo[4,3-b]pyridine], the IC50 on PDE1B (read-out: PDE1B, IC50) came to 3.9 nM; at PDE1C, 56 nM; at PDE1A, 23 nM.

With `CCOc1ncccc1-c1cc(NCc2ncc(F)cn2)c2c(n1)c(C)nn2C(C)C` [Example 83, 5-(2-ethoxy-3-pyridyl)-N-[(5-fluoropyrimidin-2-yl)methyl]-1-isopropyl-3-methyl-pyrazolo[4,3-b]pyridin-7-amine], the IC50 turned out to be 1.2 nM at PDE1B (read-out: PDE1B, IC50); 38 nM against PDE1C; 17 nM on PDE1A.

For the molecule `CCOc1ncccc1-c1cc(NCc2c[nH]cn2)c2c(n1)c(C)nn2C(C)CC` (single isomer, unassigned) [Example 130, 5-(2-ethoxy-3-pyridyl)-N-(1H-imidazol-4-ylmethyl)-3-methyl-1-[1-methylpropyl]pyrazolo[4,3-b]pyridin-7-amine], the IC50 against PDE1B (PDE1B, IC50 (nM)) was 0.86 nM; against PDE1C it was 25 nM; against PDE1A, 11 nM.

Turning to `Cc1nn(C(C)C)c2c(NCc3cnn(C)c3)cc(-c3nccs3)nc12` [Example 147, 1-isopropyl-3-methyl-N-[(1-methylpyrazol-4-yl)methyl]-5-thiazol-2-yl-pyrazolo[4,3-b]pyridin-7-amine], the IC50 was found to be 2.1 nM on PDE1B (read-out: PDE1B, IC50); 28 nM against PDE1C; 12 nM on PDE1A.

Turning to `CCOc1ncccc1-c1cc(NCc2ccnc(C)n2)c2c(n1)c(C)nn2C(C)C` [Example 105, 5-(2-ethoxy-3-pyridyl)-1-isopropyl-3-methyl-N-[(2-methylpyrimidin-4-yl)methyl]pyrazolo[4,3-b]pyridin-7-amine], the IC50 was determined as 12 nM on PDE1B (read-out: PDE1B, IC50); 150 nM on PDE1C; 54 nM against PDE1A.

Turning to `CCOc1ncccc1-c1cc(NCc2cnn(C)c2)c2c(n1)c(C)nn2C` [Example 28, 5-(2-ethoxy-3-pyridyl)-1,3-dimethyl-N-[(1-methylpyrazol-4-yl)methyl]pyrazolo[4,3-b]pyridin-7-amine], the IC50 at PDE1B (read-out: PDE1B, IC50) amounted to 85 nM; on PDE1C, 1900 nM; at PDE1A, 550 nM.

As for `CCCOc1ncccc1-c1cc(NCc2cn(C)cn2)c2c(n1)c(C)nn2C(C)C` [Example 142, 1-isopropyl-3-methyl-N-[(1-methylimidazol-4-yl)methyl]-5-(2-propoxy-3-pyridyl)pyrazolo[4,3-b]pyridin-7-amine], the IC50 was 0.1 nM on PDE1B (read-out: PDE1B, IC50); 0.8 nM against PDE1C; 0.26 nM at PDE1A.

On to `Cc1nn(C(C)C)c2c(NCc3cnn(C)c3)cc(-n3cncn3)nc12` [Example 185, 1-isopropyl-3-methyl-N-((1-methyl-1H-pyrazol-4-yl)methyl)-5-(1H-1,2,4-triazol-1-yl)-1H-pyrazolo[4,3-b]pyridin-7-amine], for which the IC50 was found to be 24 nM at PDE1B (read-out: PDE1B, IC50); 92 nM at PDE1C; 100 nM on PDE1A.

As for `COc1ccc(CNc2cc(-c3cccnc3N(C)C)nc3c(C)nn(C(C)C)c23)cc1` [Example 192, 5-[2-(dimethylamino)-3-pyridyl]-1-isopropyl-N-[(4-methoxyphenyl)methyl]-3-methyl-pyrazolo[4,3-b]pyridin-7-amine], the IC50 on PDE1B (read-out: PDE1B, IC50) came out at 71 nM; at PDE1C, 490 nM; against PDE1A, 630 nM.
